The results in this text go back to patent US6875760B2 (Novo Nordisk A/S, priority 1999, dated 2005).

The target of one assay is T1, human glucagon receptor (Homo sapiens, UniProt P47871).
T1 construct: expressed in transfected cells; host or cells: BHK (baby hamster kidney) cells
T1 sequence (P47871 26-477): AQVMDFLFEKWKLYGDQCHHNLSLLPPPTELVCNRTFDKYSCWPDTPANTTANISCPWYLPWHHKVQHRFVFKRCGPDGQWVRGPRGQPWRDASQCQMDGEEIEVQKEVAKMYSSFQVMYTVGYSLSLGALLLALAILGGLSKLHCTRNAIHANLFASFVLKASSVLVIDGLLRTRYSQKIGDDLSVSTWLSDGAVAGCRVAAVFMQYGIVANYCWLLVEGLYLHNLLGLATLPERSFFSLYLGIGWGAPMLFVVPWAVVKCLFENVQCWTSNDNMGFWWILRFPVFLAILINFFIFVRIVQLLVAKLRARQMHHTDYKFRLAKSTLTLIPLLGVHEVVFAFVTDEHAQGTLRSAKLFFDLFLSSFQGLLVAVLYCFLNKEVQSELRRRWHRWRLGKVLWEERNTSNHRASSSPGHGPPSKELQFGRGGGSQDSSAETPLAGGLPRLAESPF
Kind of assay: Glucagon Binding Assay (III). The conditions noted are these: BHK cell membranes, WGA SPA beads, 125I-glucagon; read-out: Glu Bd Assay (III) IC50. The procedure, abridged:
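Non-specific binding was set with 500 nM glucagon in this SPA-type binding assay using WGA beads. The receptor source was a membrane preparation, kept on ice or at 4 °C, from BHK cells transfected with the human receptor. Scintillation counts were taken after 4 hours of shaking and 8–48 hours of settling.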
Turning to `O=C(Nc1nn[nH]n1)c1ccc(CN(C(=O)Nc2nc3ccc(OC(F)(F)F)cc3s2)c2ccc(C3CCCCC3)cc2)cc1` [Example 341, 4-[1-(4-Cyclohexylphenyl)-3-(6-trifluoromethoxybenzothiazol-2-yl)ureidomethyl]-N-(2H-tetrazol-5-yl)benzamide], the IC50 came to 56 nM. Still for that read-out and setting: then “(4-tert-Butylcyclohexyl)-3-(N′-[cyclopropylmethyl]phthalimid-4-yl)ureidomethyl]-N-(2H-tetrazol-5-yl)benzamide [Example 638]”, with 11 nM; and `CC(C(=O)N(Cc1ccc(C(=O)Nc2nn[nH]n2)cc1)C1CCC(C(C)(C)C)CC1)c1ccccc1` (stereo not shown) [Example 550, 4-{[(4-tert-Butylcyclohexyl)-(2-Phenylpropionyl)amino]methyl}-N-(2H-tetrazol-5-yl)benzamide], with 381 nM; and `O=C(O)CCNC(=O)c1ccc(CN(CCC(c2ccccc2)c2ccccc2)C(=O)Nc2ccc(OC(F)(F)F)cc2)cc1` [Example 18, 3-{4-[1-(3,3-Diphenylpropyl)-3-(4-trifluoromethoxyphenyl)ureidomethyl]benzoylamino}propionic acid], with 126 nM.

`CC(C)(C)C1CCC(N(Cc2ccc(C(=O)NCCC(=O)O)cc2)C(=O)Oc2ccc(Cl)c(Cl)c2)CC1` (stereo not shown) [Example 401, 3-(4-{[(4-tert-Butylcyclohexyl)-(3,4-dichlorophenoxycarbonyl)amino]methyl}benzoylamino)propionic acid]: the IC50 stood at 176 nM. On to `O=C(Nc1nn[nH]n1)c1ccc(CN(C(=O)Nc2cc(C(F)(F)F)ccc2C(F)(F)F)c2ccc(C3=CCCCC3)cc2)cc1` [Example 361, 4-[3-(2,5-Bis(trifluoromethyl)phenyl)-1-(4-cyclohex-1-enylphenyl)ureidomethyl]-N-(2H-tetrazol-5-yl)benzamide], for which the IC50 is 119 nM. On to `O=C(O)CCNC(=O)c1ccc(CN(C(=O)Nc2cccc([N+](=O)[O-])c2)c2ccc(C3CCCCC3)cc2)cc1` [Example 443, 3-{4-[1-(4-Cyclohexylphenyl)-3-(3-nitrophenyl)ureidomethyl]benzoylamino}propionic acid], for which the concentration for half-maximal inhibition (IC50) was determined as 167 nM. Regarding `O=C(O)CCNC(=O)c1ccc(CN(C(=O)c2cc3cc(Cl)ccc3o2)c2ccc(C3CCCCC3)cc2)cc1` [Example 561, 3-(4-{[(5-Chlorobenzofuran-2-carbonyl)-(4-cyclohexylphenyl)amino]methyl}benzoylamino)propionic acid], the IC50 was determined as 372 nM.

As to `CC(Oc1ccc(OC(F)(F)F)cc1)C(=O)N(Cc1ccc(C(=O)Nc2nn[nH]n2)cc1)c1ccc(N2CCCCC2)cc1` (stereo not shown) [Example 554, 4-({(4-Piperidin-1-ylphenyl)-[2-(4-trifluoromethoxyphenoxy)propionyl]amino}methyl)-N-(2H-tetrazol-5-yl)benzamide], the IC50 is 788 nM. Regarding `CC(=O)c1ccc(NC(=O)N(Cc2ccc(C(=O)NCCC(=O)O)cc2)C2CCC(C(C)(C)C)CC2)cc1` (stereo not shown) [Example 32, 3-{4-[1-(4-tert-Butylcyclohexyl)-3-(4-acetylphenyl)ureidomethyl]benzoyl}aminopropionic acid], the IC50 worked out at 1680 nM. As for `O=C(O)CCNC(=O)c1ccc(CN(CCc2ccc(Cl)c(Cl)c2)C(=O)Nc2ccc(OC(F)(F)F)cc2)cc1` [Example 19, 3-{4-[1-[2-(3,4-Dichlorophenyl)ethyl]-3-(4-trifluoromethoxyphenyl)ureidomethyl]benzoylamino}propionic acid], the half-inhibitory concentration (IC50) turned out to be 201 nM.

Turning to `O=C(O)CCNC(=O)c1ccc(CN(C(=O)Nc2ccc(OC(F)(F)F)cc2)c2ccc(C(F)(F)F)cc2)cc1` [Example 437, 3-{4-[3-(4-Trifluoromethoxyphenyl)-1-(4-trifluoromethylphenyl)ureidomethyl]benzoylamino}propionic acid], the IC50 is 207 nM.

Regarding `O=C(O)CCNC(=O)c1ccc(CN(C(=O)Oc2ccc(Br)cc2Br)c2ccc(C3CCCCC3)cc2)cc1` [Example 420, 3-(4-{[(4-Cyclohexylphenyl)-(2,4-dibromompheoxycarbonyl)amino]methyl}benzoylamino)propionic acid], the IC50 stood at 729 nM.

Regarding `O=C(Nc1nn[nH]n1)c1ccc(CN(C(=O)c2ccc(Cc3ccccc3)cc2)c2ccc(N3CCCCC3)cc2)cc1` [Example 519, 4-{[(4-Benzylbenzoyl)-(4-piperidin-1-ylphenyl)amino]methyl}-N-(2H-tetrazol-5-yl)benzamide], the IC50 was 908 nM. Same read-out and setting: to `O=C(O)CCNC(=O)c1ccc(CN(CC(c2ccccc2)c2ccccc2)C(=O)Nc2ccc(Oc3ccccc3)cc2)cc1` [Example 53, 3-{4-[1-(2,2-Diphenylethyl)-3-(4-phenoxyphenyl)ureidomethyl]benzoylamino}propionic acid] belongs 505 nM; to `CCCCC(CC)CN(Cc1ccc(C(=O)NCCC(=O)O)cc1)C(=O)Nc1ccc(C(C)C)cc1` (stereo not shown) [Example 43, 3-{4-[1-(2-Ethylhexyl)-3-(4-isopropylphenyl)ureidomethyl]benzoylamino}propionic acid], 1110 nM.

With `CCc1ccc(NC(=O)N(CCc2ccc(Cl)c(Cl)c2)Cc2ccc(C(=O)NCCC(=O)O)cc2)cc1` [Example 46, 3-{4-[1-[2-(3,4-Dichlorophenyl)ethyl)-3-(4-ethylphenyl)ureidomethyl]benzoylamino}propionic acid], the 50% inhibitory concentration (IC50) was 456 nM. For the compound `COc1cc(OC)c(NC(=O)N(Cc2ccc(C(=O)NCCC(=O)O)cc2)C2CCC(C(C)(C)C)CC2)cc1Cl` (stereo not shown) [Example 24, 3-{4-[1-(4-tert-Butylcyclohexyl)-3-(5-chloro-2,4-dimethoxyphenyl)ureidomethyl]benzoylamino}propionic acid], the IC50 stood at 1700 nM. Same read-out and setting: to `CC(C)(C)C1CCC(N(Cc2ccc(C(=O)NCCC(=O)O)cc2)C(=O)Oc2ccc(Br)cc2Br)CC1` (stereo not shown) [Example 404, 3-(4-{[(4-tert-Butylcyclohexyl)-(2,4-dibromophenoxycarbonyl)amino]methyl}benzoylamino)propionic acid] belongs 346 nM. On to `CCC[C@H]1CC[C@@H](N(Cc2ccc(C(=O)NCCC(=O)O)cc2)C(=O)Nc2ccc(OC(F)(F)F)cc2)CC1` [Example 77, 3-{4-[1-(4-cis-Propylcyclohexyl)-3-(4-trifluoromethoxyphenyl)ureidomethyl]benzoylamino}propionic acid], for which the IC50 is 294 nM. Regarding `O=C(Nc1nn[nH]n1)c1ccc(CN(C(=O)NCc2ccccc2-c2ccccc2)c2ccc(C3CCCCC3)cc2)cc1` [Example 354, 4-[3-Biphenyl-2-ylmethyl-1-(4-cyclohexylphenyl)ureidomethyl]-N-(2H-tetrazol-5-yl)benzamide], the IC50 is 11 nM.

Turning to `O=C(Nc1nn[nH]n1)c1ccc(CN(CC(c2ccccc2)c2ccccc2)C(=O)/C=C/c2c(Cl)cccc2Cl)cc1` [Example 478, 4-{[[3-(2,6-Dichlorophenyl)acryloyl]-(2,2-diphenylethyl)amino]methyl}-N-(2H-tetrazol-5-yl)benzamide], the IC50 was determined as 2940 nM. In the case of `CC(C)(C)C1CCC(N(Cc2ccc(C(=O)NCCC(=O)O)cc2)C(=O)Nc2ccc(Oc3ccccc3)cc2)CC1` (stereo not shown) [Example 57, 3-{4-[1-(4-tert-Butylcyclohexyl)-3-(4-phenoxyphenyl)ureidomethyl]benzoylamino}propionic acid], the IC50 is 90 nM. The same measure, in the same setting: to `CCC1CCC(N(Cc2ccc(C(=O)NCCC(=O)O)cc2)C(=O)Nc2cc(C(F)(F)F)cc(C(F)(F)F)c2)C1` (stereo not shown) [Example 85, 3-{4-[3-(3,5-Bis(trifluoromethyl)phenyl)-1-(3-ethylcyclopentyl)ureidomethyl]benzoylamino}propionic acid] belongs 494 nM.

`CCCCOc1ccc(N(Cc2ccc(C(=O)NCCC(=O)O)cc2)C(=O)Nc2ccc(OC(F)(F)F)cc2)cc1` [Example 435, 3-{4-[1-(4-Butoxyphenyl)-3-(4-trifluoromethoxyphenyl)ureidomethyl]benzoylamino}propionic acid]: the half-inhibitory concentration (IC50) is 374 nM. Same read-out and setting: then `CC(C)(C)c1ccc(N(Cc2ccc(C(=O)Nc3nn[nH]n3)cc2)C(=O)/C=C/c2c(Cl)cccc2Cl)cc1` [Example 479, 4-({(4-tert-butylphenyl)-[3-(2,6-dichlorophenyl)acryloyl]amino}methyl)-N-(2H-tetrazol-5-yl)benzamide], with 819 nM. Same read-out and setting: then `CCC(C)(C)C1CCC(N(Cc2ccc(C(=O)NCCC(=O)O)cc2)NC(=O)c2ccc(OC(F)(F)F)cc2)CC1` (stereo not shown) [Example 423, 3-{4-[N-[4-(1,1-Dimethylpropyl)cyclohexyl]-N′-(4-trifluoromethoxybenzoyl)hydrazinomethyl]benzoylamino}propionic acid], with 37 nM; and `O=C(Nc1nn[nH]n1)c1ccc(CN(C(=O)Nc2ccc3c(c2)C(F)(F)OC(F)(F)O3)c2ccc(C3=CCCCC3)cc2)cc1` [Example 358, 4-[1-(4-Cyclohex-1-enylphenyl)-3-(2,2,4,4-tetrafluoro-4H-benzo[1,3]dioxin-6-yl)ureidomethyl]-N-(2H-tetrazol-5-yl)benzamide], with 19 nM. Same read-out and setting: to `CC(C)(C)c1ccc(N(Cc2ccc(C(=O)Nc3nn[nH]n3)cc2)C(=O)Oc2cc(C(F)(F)F)cc(C(F)(F)F)c2)cc1` [Example 406] belongs 751 nM.

Staying with this assay, now noted: Glu Bd Assay (III) IC50 (nM), BHK cell membranes, WGA SPA beads, 125I-glucagon.
For `CC(C)(C)[C@H]1CC[C@H](N(Cc2ccc(C(=O)NCCC(=O)O)cc2)C(=O)Nc2ccc(OCC3CC3)cc2C(F)(F)F)CC1` [Example 250, 3-{4-[1-(trans-4-tert-Butylcyclohexyl)-3-(4-cyclopropylmethoxy-2-trifluoromethylphenyl)ureidomethyl]benzoylamino}propionic acid], the IC50 amounted to 182 nM.

`CC(C)(C)[C@H]1CC[C@H](N(Cc2ccc(C(=O)NCCC(=O)O)cc2)C(=O)Nc2ccc(OC(F)(F)F)cc2Br)CC1` [Example 242, 3-{4-[3-(2-Bromo-4-trifluoromethoxyphenyl)-1-(trans-4-tert-butylcyclohexyl)ureidomethyl]benzoylamino}propionic acid]: the IC50 stood at 153 nM.

What is called IC50 is the concentration needed to halve the response being measured.
